# Source: patent US20090270459A1, “Flea control agent containing N-Substituted indole derivative” (priority 2001, published 2009)
# Columns and labels:
# adult cat fleas = test: Effect on cat flea (1): glass tube residue contact test, knock-down and mortality; assay type: in vivo, cat flea (Ctenocephalides felis); design: After 3 hours (KD) knocking-down rate: unit not given here
# Description: Each compound was dissolved in acetone to a predetermined concentration and 0.1 ml of the resulting solution was dropped into the bottom of a glass tube with a diameter of 2.8 cm and a height of 12 cm and air-dried. After the air-drying, 10 adult cat fleas were placed in the glass tube and the glass tube was closed with nylon mesh and allowed to stand under conditions of a room temperature of 26° C. and a humidity of 80%. The knocked-down (KD) fleas after 3 hours and the dead and alive after 24 hours and 48 hours were counted, and the knocking-down rate and the mortality were calculated. Fipronil was used as a positive control. In a control experiment, no treatment with an agent was carried out.
# std:ddy strain male mice = test: Toxicity to mouse, administration into the stomach; assay type: in vivo
# Description: The compound listed in Table 1 or Fipronil was dissolved in olive oil to a predetermined concentration, and the resulting solution was directly administered into the stomachs of std:ddy strain male mice by the use of a probe. The dose was 30 mg/kg or 100 mg/kg. Whether the mice were alive or dead was observed 3 hours, 1 day, 7 days and 14 days after the administration.
# [1] = test system: cat fleas parasitic on a cat; test: Effect on cat flea (2): spot-on of 10% liquid drops on flea-infested cat, cumulative fall rate; assay type: in vivo, cat flea (Ctenocephalides felis) on cat; conditions: for Cumulative fall rate (%) After 2 hours: cat with 30 cat fleas
# Description: Fleas that had fallen from the cat body were counted at intervals of 2 hours until 8 hours after the dropping of the solution, and the cumulative fall rate was calculated. In addition, fleas that had fallen in 24 hours were counted and the cumulative fall rate after 1 day was calculated. Two days after the dropping, the living fleas on the cat body were counted by the use of a flea-removing comb.
# cat = test: Toxicity to cat, spot-on dropping of liquid drops; conditions: for Clinical symptom: 0.5 ml spot-on, cat, listed as No. 17
# Source text: After the dropping, the clinical symptom of the cat was observed.
# [2] = test system: adult cat fleas made parasitic on the cat body; test: Effect on cat flea (3): residual effect after spot-on of 10% liquid drops on cat, re-infestation; assay type: in vivo, cat flea (Ctenocephalides felis) on cat; conditions: for Number of living fleas on the second day after inoculation: 30 fleas inoculated
# Source text: After the dropping, 30 adult cat fleas were made parasitic on the cat body after a predetermined number of weeks. On the second day after this inoculation with the parasites, the living fleas on the cat body were counted by the use of a flea-removing comb.
# [3] = 1 mg/tube, 10 adult cat fleas, 26° C., humidity 80%
# [4] = 30 mg/kg into the stomach, in olive oil, male mice
Compound,After 3 hours (KD) knocking-down rate (adult cat fleas; 0.001 mg/tube),After 1 day (mortality) (adult cat fleas; 0.001 mg/tube) [%],After 2 days (mortality) (adult cat fleas; 0.001 mg/tube) [%],After 3 hours (KD) knocking-down rate (adult cat fleas; 0.01 mg/tube),After 1 day (mortality) (adult cat fleas; 0.01 mg/tube) [%],After 2 days (mortality) (adult cat fleas; 0.01 mg/tube) [%],After 3 hours (KD) knocking-down rate (adult cat fleas; 0.1 mg/tube),After 1 day (mortality) (adult cat fleas; 0.1 mg/tube) [%],After 2 days (mortality) (adult cat fleas; 0.1 mg/tube) [%],After 1 day (mortality) (adult cat fleas; 1 mg/tube) [%],After 2 days (mortality) (adult cat fleas; 1 mg/tube) [%],After 3 hours (KD) knocking-down rate (adult cat fleas; [3]),Cumulative mortality After 1 day (std:ddy strain male mice; 30 mg/kg),Cumulative mortality After 7 days (std:ddy strain male mice; 30 mg/kg),Cumulative mortality After 14 days (std:ddy strain male mice; 30 mg/kg),Cumulative mortality After 3 hours (std:ddy strain male mice; [4]),Cumulative mortality After 3 hours (std:ddy strain male mice; 100 mg/kg),Cumulative mortality After 1 day (std:ddy strain male mice; 100 mg/kg),Cumulative mortality After 7 days (std:ddy strain male mice; 100 mg/kg),Cumulative mortality After 14 days (std:ddy strain male mice; 100 mg/kg),further results
O=S(=O)(c1cn(-c2c(Cl)cc(C(F)(F)F)cc2Cl)c2ccccc12)C(F)(Cl)Cl [Compound 32],0,0,0,0,0,20,0,30,100,100,100,0,,,,,,,,,
"FC(Cl)(Cl)Sc1cn(-c2ncc(C(F)(F)F)cc2Cl)c2ccccc12 [Compound 1, 1-(3-chloro-5-trifluoromethylpyridin-2-yl)-3-(dichlorofluoromethyl-thio)indole]",0,10,40,0,70,100,0,100,100,100,100,80,,,,,,,,,
FC(Cl)(Cl)Sc1cn(-c2ncc(C(F)(F)F)cc2Cl)c2ccc(Cl)cc12 [Compound 3],0,20,20,0,10,20,0,40,70,50,90,0,,,,,,,,,
"Cc1c(SC(F)(Cl)Cl)c2ccccc2n1-c1ncc(C(F)(F)F)cc1Cl [Compound 14, 1-(3-chloro-5-trifluoromethylpyridin-2-yl)-3-(dichlorofluoromethylthio)-2-methylindole]",0,20,30,0,50,100,0,100,100,100,100,0,0/5,0/5,0/5,0/5,0/5,0/5,0/5,0/5,
FC(Cl)(Cl)Sc1cn(-c2c(Cl)cc(C(F)(F)F)cc2Cl)c2ccc(Cl)cc12 [Compound 19],,,,0,30,90,0,60,100,100,100,0,,,,,,,,,
"N#Cc1nn(-c2c(Cl)cc(C(F)(F)F)cc2Cl)c(N)c1[S+]([O-])C(F)(F)F (stereo not drawn) [Fipronil, 5-amino-1-(2,6-dichloro-4-(trifluoromethyl)phenyl)-4-((trifluoromethyl)sulfinyl)-1H-pyrazole-3-carbonitrile, reference compound]",0,20,20,0,20,90,0,100,100,100,100,0,1/5,1/5,1/5,0/5,1/5,5/5,5/5,5/5,"Cumulative fall rate (%) After 4 hours ([1]; 0.5 ml of 10% solution spot-on): 3%; Cumulative fall rate (%) After 6 hours ([1]; 0.5 ml of 10% solution spot-on): 20%; Cumulative fall rate (%) After 8 hours ([1]; 0.5 ml of 10% solution spot-on): 27%; Cumulative fall rate (%) After 24 hours ([1]; 0.5 ml of 10% solution spot-on): 90%; Dead fleas found on the body of the cat ([1]; 24 hours after the dropping, 0.5 ml of 10% solution): three; Cumulative fall rate (%) After 2 hours ([1]; 0.5 ml of 10% solution spot-on): 0%"
"FC(F)(F)Sc1cn(-c2c(Cl)cc(C(F)(F)F)cc2Cl)c2ccccc12 [Compound 25, 1-(2,6-dichloro-4-trifluoromethylphenyl)-3-(trifluoromethylthio)indole]",0,0,30,0,70,100,10,100,100,90,100,100,0/5,0/5,0/5,0/5,0/5,0/5,0/5,0/5,
"Fc1ccc2c(c1)c(SC(F)(Cl)Cl)cn2-c1ncc(C(F)(F)F)cc1Cl [Compound 2, 1-(3-chloro-5-trifluoromethylpyridin-2-yl)-3-(dichlorofluoromethylthio)-5-fluoroindole]",0,0,0,0,10,50,0,100,100,100,100,0,,,,,,,,,
"FC(Cl)(Cl)Sc1cn(-c2c(Cl)cc(C(F)(F)F)cc2Cl)c2ccccc12 [Compound 17, 1-(2,6-dichloro-4-trifluoromethylphenyl)-3-(dichlorofluoromethylthio)indole]",0,10,40,0,70,100,0,100,100,100,100,50,0/5,0/5,0/5,0/5,0/5,0/5,0/5,0/5,"Fate of the fleas that had fallen from the cat body ([1]; 0.5 ml of 10% solution spot-on): died within several hours; Cumulative fall rate (%) After 4 hours ([1]; 0.5 ml of 10% solution spot-on): 15%; Cumulative fall rate (%) After 6 hours ([1]; 0.5 ml of 10% solution spot-on): 37%; Cumulative fall rate (%) After 8 hours ([1]; 0.5 ml of 10% solution spot-on): 47%; Cumulative fall rate (%) After 24 hours ([1]; 0.5 ml of 10% solution spot-on): 100%; Cumulative fall rate (%) After 2 hours ([1]; 0.5 ml of 10% solution spot-on): 0%; Toxicity to cat (cat; 10, 20 or 30% liquid drops spot-on): only low toxicity; Clinical symptom (cat; dropping concentration 10%): no abnormal sign; Clinical symptom (cat; dropping concentration 20%): no abnormal sign; Clinical symptom (cat; dropping concentration 30%): no abnormal sign; Duration of the aftereffect ([2]; 0.5 ml of 10% solution spot-on, cat): about 6 weeks; Number of living fleas on the second day after inoculation ([2]; 1 week after administration, 0.5 ml of 10% solution): 0; Number of living fleas on the second day after inoculation ([2]; 2 weeks after administration): 0; Number of living fleas on the second day after inoculation ([2]; 4 weeks after administration): 0; Number of living fleas on the second day after inoculation ([2]; 6 weeks after administration): 6; Number of living fleas on the second day after inoculation ([2]; 6 weeks after administration, listed as No. 17): six; Number of living fleas on the second day after inoculation ([2]; 8 weeks after administration): 13; Number of living fleas on the second day after inoculation ([2]; 8 weeks after administration, listed as No. 17): thirteen; Killing of the fleas until 4 weeks after the dropping ([2]; until 4 weeks after the dropping): completely killed the fleas"
